Some test systems named below: 786-0; DU-145; EKVX; HCC 2998; HCT-15; MDA-MB-435; MDA-N; Malme-3M; NCI-H23; OVCAR-3; RPMI-8226; RXF 393; SF-295; SF-539; SK-MEL-2; SNB-75; SR; SW-620; UACC-62; UO-31.
Common to all, as to experiment: NCI-60 cell line screen, 48 h

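Assay format: 96-well plates, 48-hour exposure. GI50 marks 50% less growth.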 The source made the active and inactive calls. No stated cut-off is given here; in the data, active = GI50 up to about 1.1 µM and inactive = higher. Bounds are passed on as bounds.

Regarding `CNC(=O)N1CN(c2ccccc2)C2(CCN(CCCC3(c4ccc(F)cc4)OCCO3)CC2)C1=O`, the GI50 was > 100 µM (inactive) in the experiment with 786-0; > 100 µM (inactive) with DU-145; > 100 µM (inactive) with EKVX; > 100 µM (inactive) with HCC 2998; greater than 100 µM in the experiment with HCT-15; > 100 µM (inactive) with MDA-MB-435. The GI50 in the experiment on MDA-N, in the experiment on Malme-3M, in the experiment on NCI-H23, in the experiment with OVCAR-3, in the experiment on RPMI-8226 and with RXF 393 was > 100 µM (inactive) throughout. Besides, the GI50 in the experiment on SF-295, with SF-539, in the experiment with SK-MEL-2, in the experiment with SNB-75, in the experiment on SR and with SW-620 was > 100 µM (inactive) in each case. In addition, the GI50 in the experiment with UACC-62 and in the experiment on UO-31 was > 100 µM (inactive) throughout.
For `C=C(C)C(CC=C(C)C)Cc1c(O)cc(OC)c2c1OC(c1ccc(O)cc1O)C(O)C2=O` (stereo not given), the GI50 is 16.6 µM (inactive) in the experiment on 786-0; 18.3 µM (inactive) in the experiment with DU-145; 16.3 µM (inactive) in the experiment with EKVX; 16.8 µM (inactive) in the experiment with HCC 2998; 17 µM in the experiment on HCT-15; 16.9 µM (inactive) with MDA-MB-435. In addition, the GI50 in the experiment with MDA-N is 14.9 µM (inactive); in the experiment on Malme-3M, 17.7 µM (inactive); with NCI-H23 it was 17.9 µM (inactive); with OVCAR-3, 16.7 µM (inactive); in the experiment on RPMI-8226, > 100 µM (inactive); with RXF 393 it was 19 µM (inactive). For the same compound, the GI50 in the experiment with SF-295 was 15 µM (inactive); in the experiment with SF-539, 15.9 µM (inactive); in the experiment with SK-MEL-2 it was 19.5 µM (inactive); in the experiment on SNB-75, 17.2 µM (inactive); with SR it was > 100 µM (inactive); in the experiment with SW-620, 16.6 µM (inactive). For the same compound, the GI50 is 16.2 µM (inactive) in the experiment on UACC-62 and 15.9 µM (inactive) with UO-31.
As for `NC(=O)C1=CC2C3C=CC2(O)C(=O)OC3O1` (stereo not given), the GI50 is 3.63 µM (inactive) in the experiment on 786-0; 3.89 µM (inactive) with DU-145; 3.44 µM (inactive) in the experiment on EKVX; 12.2 µM (inactive) in the experiment on HCC 2998; 3.39 µM in the experiment with HCT-15; 3.27 µM (inactive) in the experiment with MDA-MB-435. In addition, the GI50 with MDA-N is 2.61 µM (inactive); in the experiment with Malme-3M, 1.82 µM (inactive); in the experiment with NCI-H23, 2.91 µM (inactive); in the experiment with OVCAR-3, 2.43 µM (inactive); in the experiment on RPMI-8226 it was 1.57 µM (inactive); in the experiment on RXF 393, 2.52 µM (inactive). Further, the GI50 was 11.9 µM (inactive) with SF-295; 3.56 µM (inactive) in the experiment on SF-539; 3.57 µM (inactive) in the experiment on SK-MEL-2; 7.98 µM (inactive) in the experiment on SNB-75; 1.68 µM (inactive) in the experiment on SR; 4.02 µM (inactive) in the experiment with SW-620. The figures for the GI50 in the experiment on UACC-62 and in the experiment with UO-31 were 2.71 µM (inactive) and 3.67 µM (inactive), respectively.

(Values after ChEMBL document CHEMBL1201862, “PubChem BioAssay data set” (2004).)
